Data from patent US20120041026A1, “(R)-4-((4-((4-(TETRAHYDROFURAN-3-YLOXY)BENZO[D]ISOXAZOL-3-YLOXY)METHYL)PIPERIDIN-1-YL)METHYL)TETRAHYDRO-2H-PYRAN-4-OL, A PARTIAL AGONIST OF 5-HT4 RECEPTORS” (Pfizer Inc., priority 2010, published 2012).
Where two headings read alike, the source gives them in different places. Marks after values point to notes of the source that are not given here.

Columns and labels:
[1] = system: THLE-2 (transformed human liver epithelial) cells; assay: THLE assay (cell viability by cellular ATP); type: cell-based; conditions: read-out: THLE IC50
Procedure: THLE assay: The THLE assay is predictive of general cell health and measures cell depletion in a human cell line of hepatic origin. THLE-2 (transformed human liver epithelial) cells were obtained from ATCC(CRL-2706 or CRL-10149) and cultured according to ATCC's recommendation. Media consisted of basal medium (BEGM Bullet Kit, Lonza Cat #CC-3170), supplemented with 10% fetal bovine serum (Sigma Cat #F4135) and 2.5 ng/L hEFG (BD Biosciences Cat #356052) and 700 ng/L phosphoethanolamine (Sigma Cat #p-0503). Cells were cultured in T175 human fibronectin/collagen/bovine serum albumin coated flasks. For each experiment, cells were plated onto 384 well plates (custom order, BD Biosciences Cat #359298) at a cell density of 2.5×10^3/well in a total medium volume of 25 μL/well. Plates were incubated for 24 h at 37° C., 5% CO2. […]
Following the 72 h exposure to test compounds, cell viability in each well was determined by measuring the concentration of cellular ATP using the Lonza Vialight™ Plus Cell Proliferation/Cytoxicity Kit (Lonza cat: LT07-121) according to the manufacturer's protocol. The ATP concentration was determined by reading luminescence using a Wallac Envision plate reader (Perkin Elmer, Waltham, Mass., USA). Percent of viable cells relative to no-drug treated controls was determined for each well. […]

human 5-HT4d [2] = target: T1, human 5-HT4d (Homo sapiens, UniProt Q13639); assay: Agonist-induced cAMP elevation in human 5-HT4d transfected HEK293 cells, 96 well format; type: cell-based; conditions: normalized to 1,000 nM serotonin; for % IA (intrinsic activity, % agonist effect) RT: RT incubation, plate format not marked
T1 construct: expressed in transfected cells; host or cells: HEK293
T1 sequence (Q13639 1-360 isoform Q13639-3): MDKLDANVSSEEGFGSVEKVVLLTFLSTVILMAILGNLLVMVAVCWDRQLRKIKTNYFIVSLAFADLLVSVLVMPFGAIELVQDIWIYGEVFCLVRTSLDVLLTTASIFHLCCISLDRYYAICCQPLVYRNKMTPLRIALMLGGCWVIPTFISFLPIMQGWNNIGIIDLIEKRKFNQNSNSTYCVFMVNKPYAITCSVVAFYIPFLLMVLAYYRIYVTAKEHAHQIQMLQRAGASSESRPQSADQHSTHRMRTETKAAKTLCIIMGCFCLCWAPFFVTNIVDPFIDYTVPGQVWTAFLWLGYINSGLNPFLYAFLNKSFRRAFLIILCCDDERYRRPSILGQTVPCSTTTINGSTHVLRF
Procedure: Agonist-induced cAMP elevation in human 5-HT4d transfected HEK293 cells, 96 well format: Human 5-HT4(d) transfected HEK293 cells were established in-house. The cells were grown at 37° C. and 5% CO2 in DMEM supplemented with 10% FCS, 20 mM HEPES (pH 7.4), 200 μg/mL hygromycin B (Gibco), 100 units/mL penicillin and 100 μg/mL streptomycin. The cells were grown to 60-80% confluence. On the previous day before treatment with compounds, dialyzed FCS (Gibco) was substituted for normal and the cells were incubated overnight. […] The cells were harvested with PBS/1 mM EDTA, centrifuged and washed with PBS. At the beginning of the assay, cell pellet was resuspended in DMEM supplemented with 20 mM HEPES, 10 μM pargyline (Sigma) and 1 mM 3-isobutyl-1-methylxanthine (Sigma) at the concentration of 1.6×10^5 cells/mL and left for 15 min at RT or 37° C. […] After incubation for 15 min at RT or 37° C., 1% Triton X-100 was added to stop the reaction (25 μL/well) and the plates were left for 30 min at RT. Homogenous time-resolved fluorescence-based cAMP (Schering) detection was made according to the manufacturer's instruction. […] Data was analyzed based on the ratio of fluorescence intensity of each well at 620 nm and 665 nm followed by cAMP quantification using cAMP standard curve. Enhancement of cAMP production elicited by each compound was normalized to the amount of cAMP produced by 1,000 nM serotonin (Sigma). Intrinsic activity is reported in Table 1, below, as % agonist effect.

[3] = Human Liver Microsome Stability Assay; conditions: HLM 0.71 mg protein/ml, 1 uM compound, NADPH; hepatic clearance/hepatic blood flow (range 0-1)
Procedure: (§1) Human Liver Microsome Stability Assay: Human liver microsomes (HLMs) are used in a metabolic stability assay to determine the NADPH-dependent in vitro apparent intrinsic metabolic clearance (CLint,app) of a drug (primarily mediated by P450 metabolism). In the HLM assay, test compounds are incubated with HLMs & an NADPH regenerating system in 100 mM potassium phosphate buffer (pH 7.4). The HLMs used in this assay are prepared as a pool from many individual donors. The concentration of HLMs and test compound are 0.71 mg protein/ml and 1 uM, respectively. The reaction is started by the addition of microsomes and buffer to compound. At 0, 5, 10, 20, 30, and 60 minutes, the sample is crashed with ACN/IS (3 times the incubation volume), spun at 4° C. and 3500 rpm for 10 minutes. A matrix and 60 minute w/o NADPH sample are also incubated for 60 minutes serving as negative and positive controls. The matrix sample contains buffer, microsomes, and NADPH (no compound); where as, the 60 minute w/o NADPH sample contains buffer, microsomes, and compound (no NADPH). After centrifugation, the supernatant is removed from the sample, combined with equal parts of water, and stored in the refrigerator until analysis. Drug levels are quantified by mass spectrometry. Clearance is frequently expressed as an extraction ratio (Er) which is calculated as hepatic clearance/hepatic blood flow (range 0-1).

human 5-HT4d [4] = target: T1, human 5-HT4d; assay: Agonist-induced cAMP elevation in human 5-HT4d transfected HEK293 cells, 384 well format; type: cell-based; conditions: normalized to 1 uM serotonin
Procedure: The cells were grown to 60-80% confluence. […] Intrinsic activity is reported in Table 1, below, as % agonist effect.

[5] = Brain Penetration Assay (plasma and brain drug levels by LC/MS/MS); conditions: rat, 5 mg/kg subcutaneous; for Brain AUC / Plasma AUC: 0.5-4 h post-dose; for Brain:Plasma ratio: ratio of AUCs
Procedure: (§2) Blood samples were collected via cardiac puncture after euthanization with CO2 at 0.5, 1, 2, and 4 h post-dose. Samples were placed in EDTA tubes and kept on ice. Whole brain was collected via decapitation. Brain samples were immediately stored in dry ice. Blood samples were spun down to collect plasma. Plasma and brain samples were stored at −20° C. until analysis. LC/MS/MS was used to measure plasma and brain drug levels.

in vivo = conditions: male, Sprague-Dawley, rat, sc, 5 mg/kg
Procedure: as §2

[6] = human, 1 uM, pH 7.4
Procedure: as §1

[7] = rat, in vivo
Procedure: as §2

% IA (intrinsic activity, % agonist effect) RT (human 5-HT4d [2])	Er (extraction ratio) [3]	% IA (intrinsic activity, % agonist effect) 37° C., 96-well format (human 5-HT4d [2])	SMILES	other results
39.1%	0.78	–	CC(C)COc1cccc2onc(OCC3CCN(CC4(O)CCOCC4)CC3)c12 [J]	IC50 ([1]; 72 h exposure, concentration range 300-0.058 μM): 56 µM; % IA (intrinsic activity, % agonist effect) 37° C., 384-well format (human 5-HT4d [4]): 55^b %
33.0%	<0.27	79.0^a %	O=C(O)C1(CN2CCC(COc3noc4cccc(OCC5(CO)CCCC5)c34)CC2)CCOCC1 [G]	–
30.8%	0.83	104%	OC1(COc2cccc3onc(OCC4CCN(CC5(O)CCOCC5)CC4)c23)CCCC1 [H]	% IA (intrinsic activity, % agonist effect) 37° C., 384-well format (human 5-HT4d [4]): 50%
55.5%	0.28	118^a %	CC(C)COc1cccc2onc(OCC3CCN(CC4(C(=O)O)CCOCC4)CC3)c12 [F]	Brain AUC [5]: 319 ng·h/g; Plasma AUC [5]: 2950 ng·h/mL; Brain:Plasma ratio [5]: 0.108

The remaining lines, values behind:

SMILES	% IA (intrinsic activity, % agonist effect) RT (human 5-HT4d [2])	Er (extraction ratio) [3]	% IA (intrinsic activity, % agonist effect) 37° C., 96-well format (human 5-HT4d [2])	other results
O=C(O)C1(CN2CCC(COc3noc4cccc(OCC(F)(F)F)c34)CC2)CCOCC1 [B]	56.3%	–	103^a %	Brain AUC [5]: 160 ng·h/g; Plasma AUC [5]: 4090 ng·h/mL; Brain:Plasma ratio [5]: 0.039
CC(C)COc1cccc2onc(OCC3CCN(CC4(C(=O)O)CCCC4)CC3)c12 [D]	36.0%	0.36	95.0^a %	–
OC1(CN2CCC(COc3noc4cccc(O[C@@H]5CCOC5)c34)CC2)CCOCC1 [Compound X, (R)-4-((4-((4-(tetrahydrofuran-3-yloxy)benzo[d]isoxazol-3-yloxy)methyl)piperidin-1-yl)methyl)tetrahydro-2H-pyran-4-ol]	–	–	–	IC50 ([1]; Homo sapiens, THLE-2, 72 h): > 300 µM; AUC (in vivo): 1760 ng·h/mL; Er (extraction ratio) [6]: 0.62; Brain AUC ([7]; male, Sprague-Dawley, sc, 5 mg/kg): 1790 ng·h/g; brain penetration (in words) [7]: freely crosses the blood brain barrier
